Measurements: ChEMBL document CHEMBL1132004, “Antagonism of the TXA2 receptor by seratrodast: a structural approach” (Bioorg Med Chem Lett, 1999)

Experiment: The pKa of the sulfonamido group of the compound
Type: physicochemical

Cc1cccc(Nc2ccncc2S(=O)(=O)/N=C(\NC#N)N2CCCCCC2)c1
pKa: 6
